As usually defined, the IC50 is the concentration that gives 50% inhibition.

The target in assay [1] is T1, DNA repair protein RAD51 homolog 1 (Homo sapiens, UniProt Q06609).
T1 sequence (Q06609 whole entry): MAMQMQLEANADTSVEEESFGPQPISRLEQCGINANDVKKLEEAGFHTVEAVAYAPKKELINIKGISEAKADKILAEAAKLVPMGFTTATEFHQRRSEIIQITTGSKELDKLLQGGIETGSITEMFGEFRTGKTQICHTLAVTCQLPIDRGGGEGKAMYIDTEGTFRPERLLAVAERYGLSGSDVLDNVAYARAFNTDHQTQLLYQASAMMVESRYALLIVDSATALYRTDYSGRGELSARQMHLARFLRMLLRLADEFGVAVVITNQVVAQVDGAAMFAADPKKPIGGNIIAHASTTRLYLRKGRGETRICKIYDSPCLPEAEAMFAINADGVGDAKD
The assay can be described thus: Inhibition of RAD51 (unknown origin) mediated homologous recombination.

Assay [2] has as its target T1, DNA repair protein RAD51 homolog 1. The assay can be described thus: Inhibition of RAD51 (unknown origin) assessed as reduction in novel 58/33-dsDNA formation incubated for 1 hr by electrophoresis based DNA strand exchange assay.
The test system of assay [3] is DU-145. The assay can be described thus: Cytotoxicity against human DU-145 cells overexpressing RAD51 assessed as cell viability at 50 uM incubated for 72 hrs by MTT assay relative to control. To be noted: read-out: Activity. The class given is functional. A general note: Tetrazolium dyes change colour on reduction, which living cells bring about.
Assay [4] has as its target T1, DNA repair protein RAD51 homolog 1. The assay can be described thus: Inhibition of RAD51 (unknown origin) using labeled 100-ss DNA as substrate assessed as reduction in DNA D-loop formation by [gamma-32P]ATP based scintillation counter method.
Assay [5] has as its system DU-145. The experiment in a line: Cytotoxicity against human DU-145 cells overexpressing RAD51 assessed as cell viability at 10 uM incubated for 72 hrs by MTT assay relative to control. The class given is functional. To be noted: read-out: Activity.
For assay [6], the target named is T1, DNA repair protein RAD51 homolog 1. The experiment in a line: Inhibition of wild type human RAD51 expressed in Escherichia coli BL21-DE3 using 100 bp ssDNA probe as substrate assessed as prevention of D-loop formation preincubated for 5 mins followed by plasmid DNA addition and measured after 15 mins by agarose gel electrophoresis method.
Assay [7] relates to DU-145. The experiment in a line: Cytotoxicity against human DU-145 cells overexpressing RAD51 assessed as cell viability at 1 uM incubated for 72 hrs by MTT assay relative to control. The format is functional. To be noted: read-out: Activity.

Take `O=C1C(Cl)=C(N2CCOCC2)C(=O)N1c1ccc(Cl)c(Cl)c1`: the 50% inhibitory concentration (IC50) in assay [1] was 20 µM.
For `O=S(=O)(O)c1cc(N=C=S)ccc1/C=C/c1ccc(N=C=S)cc1S(=O)(=O)O`, the IC50 amounted to 0.75 µM in assay [2], 0.9 µM in assay [4] and 0.9 µM in assay [6]. Further, the viability at 50 µM in assay [3] was 83%. In addition, the viability at 10 µM in assay [5] amounted to 87%. Also, the viability at 1 µM in assay [7] turned out to be 90%.
`O=c1c2ccccc2nc(/C=C/c2cccnc2)n1Cc1ccccc1`: in assay [3], the viability at 50 µM came out at 9%. Further, the viability at 10 µM in assay [5] turned out to be 79%. In addition, in assay [7], the viability at 1 µM was 95%.
For the compound `O=S(=O)(O)c1cc(I)ccc1/C=C/c1ccc(I)cc1S(=O)(=O)O`, the IC50 in assay [2] came to 17.5 µM. Moreover, the viability at 50 µM in assay [3] was 84%. Further, the viability at 10 µM in assay [5] is 89%. The viability at 1 µM in assay [7] came to 91%.
With `N#Cc1ccc(CCc2ccc(C#N)cc2S(=O)(=O)O)c(S(=O)(=O)O)c1`, the IC50 in assay [4] was over 50 µM.
Turning to `[N-]=[N+]=Nc1ccc(/C=C/c2ccc(N=[N+]=[N-])cc2S(=O)(=O)O)c(S(=O)(=O)O)c1`, the results for the IC50 in assay [2], in assay [4] and in assay [6] were 10 µM, 21.5 µM and 44.3 µM, respectively. For the same compound, in assay [3], the viability at 50 µM is 93%. The viability at 10 µM in assay [5] turned out to be 94%. In assay [7], the viability at 1 µM is 87%.
Take `N#Cc1ccc(/C=C/c2ccc([N+](=O)[O-])cc2S(=O)(=O)O)c(S(=O)(=O)O)c1`: in assay [3], the viability at 50 µM came to 88%. In addition, the IC50 in assay [4] was found to be 20 µM. For the same compound, the viability at 10 µM in assay [5] stood at 85%. In addition, in assay [7], the viability at 1 µM was 90%.
Regarding `[N-]=[N+]=Nc1ccc(/C=C/c2ccc(N=[N+]=[N-])cc2)cc1`, the IC50 in assay [4] is over 50 µM.
For `O=C(Nc1ccc(CCc2ccc(NC(=O)Oc3ccccc3)cc2S(=O)(=O)O)c(S(=O)(=O)O)c1)Oc1ccccc1`, in assay [4], the IC50 turned out to be 30 µM.
Take `CCOC(=O)Nc1ccc(/C=C/c2ccc(NC(=O)OCC)cc2S(=O)(=O)O)c(S(=O)(=O)O)c1`: the IC50 in assay [2] was over 50 µM.
For the compound `COS(=O)(=O)c1cc(NC(=O)Oc2ccccc2)ccc1/C=C/c1ccc(NC(=O)Oc2ccccc2)cc1S(=O)(=O)OC`, the IC50 in assay [4] was over 50 µM.
`COc1ccc(C(=O)Nc2ccc(/C=C/c3ccc(NC(=O)c4ccc(OC)cc4)cc3S(=O)(=O)O)c(S(=O)(=O)O)c2)cc1`: the IC50 in assay [2] was 3 µM; in assay [4], 6.5 µM. The viability at 50 µM in assay [3] amounted to 100%.
With `O=S(=O)(Nc1ccc(/C=C/c2ccc(NS(=O)(=O)c3ccccc3)cc2)cc1)c1ccccc1`, the IC50 in assay [4] was over 50 µM.
Consider `Cc1ccc(S(=O)(=O)Nc2ccc(/C=C/c3ccc(NS(=O)(=O)c4ccc(C)cc4)cc3S(=O)(=O)O)c(S(=O)(=O)O)c2)cc1`, for which the viability at 50 µM in assay [3] was found to be 100%. In addition, in assay [5], the viability at 10 µM came out at 100%. Further, in assay [7], the viability at 1 µM was 100%.
Regarding `CC(C)COC(=O)Nc1ccc(/C=C/c2ccc(NC(=O)OCC(C)C)cc2S(=O)(=O)O)c(S(=O)(=O)O)c1`, the IC50 in assay [4] is over 50 µM.
As for `N#Cc1ccc(/C=C/c2ccc(C#N)cc2S(=O)(=O)O)c(S(=O)(=O)O)c1`, the figures for the IC50 in assay [2] and in assay [4] were 1.3 µM and 4.9 µM, respectively. Further, the viability at 50 µM in assay [3] was 100%. For the same compound, in assay [5], the viability at 10 µM amounted to 94%. In addition, the viability at 1 µM in assay [7] came to 99%.
In the case of `CC(=O)Nc1ccc(/C=C/c2ccc(NC(C)=O)cc2S(=O)(=O)O)c(S(=O)(=O)O)c1`, in assay [2], the IC50 was over 50 µM.
With `O=[N+]([O-])c1ccc(S(=O)(=O)Nc2ccc(/C=C/c3ccc(NS(=O)(=O)c4ccc([N+](=O)[O-])cc4)cc3S(=O)(=O)O)c(S(=O)(=O)O)c2)cc1`, the IC50 in assay [4] is over 50 µM.
For the compound `O=C(Nc1ccc(/C=C/c2ccc(NC(=O)c3ccccc3)cc2S(=O)(=O)O)c(S(=O)(=O)O)c1)c1ccccc1`, the IC50 in assay [2] is over 50 µM. The viability at 50 µM in assay [3] was 100%. Moreover, the viability at 10 µM in assay [5] turned out to be 100%. In addition, the viability at 1 µM in assay [7] worked out at 100%.
With `CCC(=O)Nc1ccc(/C=C/c2ccc(NC(=O)CC)cc2S(=O)(=O)O)c(S(=O)(=O)O)c1`, in assay [2], the IC50 is over 50 µM.
`O=C(Nc1ccc(/C=C/c2ccc(NC(=O)Oc3ccccc3)cc2)cc1)Oc1ccccc1`: in assay [4], the IC50 is 30.5 µM.
In the case of `O=C(Nc1ccc(/C=C/c2ccc(NC(=O)Oc3ccccc3)cc2S(=O)(=O)O)c(S(=O)(=O)O)c1)Oc1ccccc1`, the IC50 in assay [2] was determined as 3.8 µM; in assay [4], 2.3 µM. In addition, the viability at 50 µM in assay [3] stood at 87%. Further, the viability at 10 µM in assay [5] was determined as 100%. For the same compound, the viability at 1 µM in assay [7] amounted to 100%.
For `O=[N+]([O-])c1ccc(/C=C/c2ccc([N+](=O)[O-])cc2S(=O)(=O)O)c(S(=O)(=O)O)c1`, in assay [4], the IC50 was over 50 µM.
Regarding `CC(=O)Nc1ccc(/C=C/c2ccc(N=C=S)cc2S(=O)(=O)O)c(S(=O)(=O)O)c1`, the IC50 in assay [4] and in assay [6] was 29 µM in each case.

Values taken from ChEMBL document CHEMBL5257068, “Synthesis and biological evaluation of DIDS analogues as efficient inhibitors of RAD51 involved in homologous recombination” (Bioorg Med Chem Lett, 2023).
